Structures are written as SMILES.

This data set in a line: gradient 5% acetonitrile 3 min, to 50% in 2 min, to 85% in 15 min, held 3 min, 100 µL/min. The conditions noted are these: column: Zorbax Extend-C18 2.1 x 50 mm; eluents: water / acetonitrile, 0.1% formic acid. The essentials: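 Pure standards were run in mixtures of ~100 molecules by HPLC coupled to a quadrupole time-of-flight mass spectrometer. The column was a Zorbax Extend-C18 (2.1 × 50 mm, 1.8 μm) at 100 μL/min, with water and acetonitrile each containing 0.1% formic acid, in positive and negative ionization mode. Dead and dwell volumes were 40 μL and 900 μL. Retention time was taken from computationally picked adduct peaks, each manually inspected, with data collected over 3 months.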
As for `Cc1ccc(S(=O)(=O)N2CCc3nc(-c4ccc(F)cc4)ncc3C2)cc1Cl`, the RP-LC retention time turned out to be 1230 s.
Take `COc1ccc(C(=O)N2CCC3(CC2)NC(=O)c2ccc(F)cc2N3C)cc1`: the RP-LC retention time stood at 740 s.
`O=c1n(Cc2ccc(Cl)cc2)nc2ccc(S(=O)(=O)N3CCCC3)cn12` registered an RP-LC retention time of 906 s.
In turn, `COc1ccc2c(c1)C1(CCN(C(=O)NCCc3ccccc3)C1)C(=O)N2C` (centres undefined) came in with an RP-LC retention time of 757 s.
Under `Cc1cc(NC(=O)c2c(O)c3cccnc3n(-c3ccc(F)cc3)c2=O)ccc1F` stands 1250 s; under `CCCNC(=O)c1cnn(-c2cc(-c3nc(CC)no3)ccn2)c1C`, 849 s; under `CC(C)CN1CCn2cc(C(=O)NCc3cc(F)ccc3F)nc2C1`, 608 s.
`O=C(NCc1ccccn1)c1c[nH]c2ncccc12`: the RP-LC retention time turned out to be 549 s.
Under `Cc1cccc(-n2c(=O)c3c(cc(C)n3C)n(CC(=O)Nc3cccc(C#N)c3)c2=O)c1` stands 846 s; under `CCN1C(=O)c2ccccc2Oc2ccc(C(=O)NC3CCCCCC3)cc21`, 1050 s.
In turn, `Cc1cc(C)cc(-c2nnc(Cc3nc(-c4ccc5c(c4)OCO5)no3)o2)c1` returned an RP-LC retention time of 1070 s.
Take `CN(C)S(=O)(=O)c1ccc(N)c([N+](=O)[O-])c1`: the RP-LC retention time was 773 s.
`Cn1c(=O)c2ccn(CC(=O)N3CCC(C(N)=O)(N4CCCCC4)CC3)c2n(C)c1=O` returned an RP-LC retention time of 728 s.
`CCC(C)NC(=O)C1CCN(S(=O)(=O)c2ccc3c(c2)CCCC(=O)N3)CC1` (centres undefined) came in with an RP-LC retention time of 682 s.
`CCc1noc(COC2CCCN(C(=O)Cn3ccnc3)C2)n1` (centres undefined) displayed an RP-LC retention time of 586 s.
Take `CCC(C(=O)NCCc1cnc[nH]1)n1c2ccccc2c2cnn(C)c(=O)c21` (centres undefined): the RP-LC retention time was determined as 603 s.
As for `CCCC(=O)Nc1ccc2c(c1)CN(C(=O)c1ccc(F)c(Cl)c1)C(C(=O)N(C)C)C2` (centres undefined), the figure is 727 s; as for `COc1cc(NS(=O)(=O)c2c(C)sc(C)c2-c2cc(C(F)(F)F)on2)cc(OC)c1`, 1140 s; as for `Cc1ccc(-c2nnc(Cc3nc(-c4ccc(OC(C)C)cc4)no3)o2)cc1C`, 1240 s.
As for `COc1ccc(S(=O)(=O)Nc2cccc(-c3cn4ccccc4n3)c2)cc1`, the figure is 645 s.
Under `O=C(Nc1ccccc1)N1CCc2nn(Cc3ccccc3)c(=O)n2CC1` stands 736 s; under `O=C(NC1CC1)c1ccc(OCC2CCN(C(=O)c3ccc(F)c(Cl)c3)CC2)cc1`, 870 s; under `Cn1cc(S(=O)(=O)NCc2cccs2)c(=O)n(C)c1=O`, 635 s.
Molecule `CN1C(=O)[C@H]2CN(Cc3ccc(F)c(Cl)c3)C[C@H]2C1=O` registered an RP-LC retention time of 623 s.
As to `Cc1ccc(CNC(=O)Cn2c(N3CCCC3)nc(C)cc2=O)cc1`, the RP-LC retention time amounted to 618 s.
For the molecule `Cc1ccc(CNC(=O)CCC2CCN(c3cc(NC4CC4)ncn3)CC2)cc1`, the RP-LC retention time was 714 s.
Regarding `COc1ccc2nc(-c3ccc(F)c(NC(=O)Nc4ccccc4C)c3)cn2n1`, the RP-LC retention time came to 789 s.
Under `COc1cccc(CN2C[C@@H]3C(=O)N(CCN4CCc5ccccc5C4)C(=O)[C@@H]3C2)c1` stands 590 s.
On to `O=C(COc1ccc(Cl)cc1Cl)NCC1CCN(C(=O)c2ccccc2F)CC1`, for which the RP-LC retention time is 858 s.
`C=CCN1C(=O)COc2ccc(-c3nc(NC(=O)c4ccc(OC)c(OC)c4)sc3C)cc21` yielded an RP-LC retention time of 985 s.
`CN(CCc1noc(-c2ccc(Cl)cc2)n1)C(=O)COc1ccc(F)cc1` gave an RP-LC retention time of 993 s.
`CCCN(CC1CCOC1)C(=O)Nc1ccc(F)cc1` (centres undefined) had an RP-LC retention time of 728 s.
As for `COC[C@@H]1CN(c2cnccn2)C[C@H]1C(=O)NCC#N`, the RP-LC retention time was found to be 546 s.
`CC(=O)OCC(=O)[C@@]1(O)CCC2C3CCC4=CC(=O)CC[C@]4(C)C3=CC[C@@]21C` (some centres undefined) gave an RP-LC retention time of 776 s.
As to `CCC(=O)N1CCc2c(-c3ccc(OC)cc3)cccc2[C@H]1C`, the RP-LC retention time turned out to be 1030 s.
In the case of `CN1C(=O)CCc2cc(NC(=O)c3ccoc3)ccc21`, the RP-LC retention time was found to be 653 s.
Turning to `O=C(O)c1ccc(N2CCN(c3ccccn3)CC2)c(NS(=O)(=O)c2cc(F)ccc2F)c1`, the RP-LC retention time was 640 s.
Under `Cc1nc([C@@H]2CN(C(=O)CCc3c(C)noc3C)C[C@H]2C(N)=O)n[nH]1` stands 569 s; under `Cc1cccc(Cn2cc(C(=O)O)c(S(=O)(=O)N3CCSCC3)n2)c1`, 914 s.
`Cc1ccc(NC(=O)C2CC(=O)N(c3cccc(NC(=O)C(C)C)c3)C2)cc1Cl` (centres undefined): the RP-LC retention time stood at 872 s.
`CCc1ccc2c(c1)cc(S(=O)(=O)c1ccccc1)c(=O)n2CC(=O)NCc1ccc(F)cc1` came in with an RP-LC retention time of 971 s.
In the case of `Cc1ccccc1NC(=O)C1CCN(S(C)(=O)=O)c2ccccc2O1` (centres undefined), the RP-LC retention time was determined as 867 s.
In turn, `CCN(CC)CCNC(=O)c1nn(-c2ccc(Cl)cc2)c2c1CCc1cc(OC)ccc1-2` displayed an RP-LC retention time of 774 s.
In the case of `O=C(Nc1cccc(-c2ccc(N3CCCC3)nn2)c1)Nc1c(F)cccc1F`, the RP-LC retention time is 690 s.
`O=C(CCCn1nnc2ccccc2c1=O)Nc1ccc(F)c(Cl)c1` gave an RP-LC retention time of 794 s.
In turn, `Cn1cc(S(=O)(=O)N2CCC(C(=O)NC3CCCCCCC3)CC2)cc1C(=O)N1CCCC1` gave an RP-LC retention time of 844 s.
The molecule `Cc1cccc(Cn2ccc3ccn(CC(=O)N4CCOc5ccc(C)cc54)c(=O)c32)c1` returned an RP-LC retention time of 1090 s.
The molecule `CCCOC(=O)C1=C(C)NC2=C(C(=O)C(C(=O)OC)C(C)C2)C1c1ccc(F)cc1` (centres undefined) came in with an RP-LC retention time of 958 s.
Turning to `Cc1nc(SCC(=O)O)n[nH]1`, the RP-LC retention time turned out to be 765 s.
As to `COc1ccc(-c2ccnn2-c2ccc(SCc3ccccc3C)nn2)cc1`, the RP-LC retention time was determined as 1390 s.
As for `COC(=O)c1c(C)[nH]c(C(=O)N2CCC(CC(=O)NCCCN3CCOCC3)CC2)c1C`, the figure is 575 s; as for `O=C(Cc1cc(-c2ccc3c(c2)OCCO3)on1)N1CCN(c2ccccc2F)CC1`, 895 s.
Under `COc1cc(C(=O)NC2CCCNC2)cc(OC)c1OC` (centres undefined) stands 621 s.
With `COCCC(=O)N1CCCn2nc(-c3cccs3)cc2C1`, the RP-LC retention time came to 682 s.
Under `Cc1oc2ncnc(N3CCCCC3)c2c1C(=O)NCCN(Cc1ccco1)C1CCCC1` stands 845 s.
The molecule `CCOC(=O)C1=C(CN2CCN(C(C)CC)CC2)NC(=O)NC1c1ccc(OC(C)C)cc1` (centres undefined) yielded an RP-LC retention time of 668 s.
Take `COc1ccc(C(=O)NC2CCN(c3cc(C)cc(C)c3)C2=O)cc1F` (centres undefined): the RP-LC retention time was 901 s.
With `O=C(c1cnn2cc(Br)cnc12)N1CCCC1c1cccc(F)c1` (centres undefined), the RP-LC retention time was found to be 904 s.
The molecule `Cc1ccc(CNC(=O)Cn2cnc3c(c(C)c(C)n3-c3ccc(Cl)cc3)c2=O)o1` registered an RP-LC retention time of 930 s.

The record behind these values is the METLIN SMRT retention time set (Domingo-Almenara et al. 2019).
